Measured values from patent publication US20230339997A1, “CLASS OF PLATINUM COMPOUNDS FOR TREATING CANCER, AND METHOD FOR PREPARATION THEREOF” (SHANGHAI HAIJU BIOLOGICAL TECHNOLOGY CO., LTD., priority 2020, published 2023).
Values after ≈ are worked out from the molar mass of the structure shown. “Also recorded” adds a separate entry of the source.

Columns and labels:
S180 sarcoma = assay: In vivo tumor inhibition experiment, transplanted tumor S180 in mice; parameters: species or system Kunming mice; details: for Tumor inhibition rate % / Tumor weight (g) X ± SD: S180 sarcoma mice, dl, 4, killed on eighth day
Experimental: In Vivo Tumor Inhibition Experiment of Example
The inhibitory effects of example S47 and example S70 of the present disclosure on animal transplanted tumor S180 were tested.
Kunming mice, ♀, 22±1 g, were purchased from Shanghai Slac Laboratory Animal Co., Ltd. Certificate number: SCXK (Shanghai) 2013-0010-02. Feeding environment: SPF level. Example S47, example S70 and carboplatin, a positive control drug, were prepared with 5% glucose to the required concentration. Mice were subcutaneously inoculated with S180 sarcoma cells, and the drug administration was started on the next day of inoculation. The mice were killed on the eighth day, and the tumor was weighed and the tumor inhibition rate was calculated.
Tumor inhibition rate=(tumor weight in the control group−tumor weight in the treatment group)/tumor weight in the control group×100

[1] = In vitro water solubility experiment; details: for solubility at 30 min / solubility: 25 °C, water, thermodynamic from solid; for improvement of water solubility compared with carboplatin: compared with the marketed drug carboplatin
Experimental: In Vitro Water Solubility Experiment of Example
At room temperature of 25° C., the test sample that had been ground into a fine powder was weighed accurately, and shaken vigorously for 30 seconds every 5 minutes in a certain volume of distilled water; and the dissolution of each test sample was observed within 30 minutes. If no visible solute particles were visible, the sample was considered to be completely dissolved.

[2] = background, studies have shown; cited from earlier work

CC(=O)N[C@@H](CCCNC(=N)N)C(=O)NCC(=O)N[C@@H](CC(=O)O)C(=O)NCCSC1CC(=O)N(CCCCCC(=O)NN=C2CC3(C2)C(=O)[O][Pt]([NH2])([NH2])[O]C3=O)C1=O (stereo partly drawn) [Example S70]
Tumor inhibition rate % (S180 sarcoma; dose 80, Ip): 52.3%
Tumor weight (g) X ± SD (S180 sarcoma; dose 80, Ip): 0.92 ± 0.20 g
Tumor inhibition rate % (S180 sarcoma; dose 160, Ip): 70.8%
Tumor weight (g) X ± SD (S180 sarcoma; dose 160, Ip): 0.56 ± 0.17 g
Tumor inhibition rate % (S180 sarcoma; dose 240, Ip): 84.6%
Tumor weight (g) X ± SD (S180 sarcoma; dose 240, Ip): 0.30 ± 0.14 g
inhibitory effect on growth of S180 sarcoma of mice (in words) (S180 sarcoma; compared with carboplatin at equimolar concentrations): more obvious ability to inhibit the growth of transplanted tumor S180 than the clinical drug carboplatin; also recorded: significantly better than carboplatin

N=C(N)NCCC[C@@H]1NC(=O)[C@@H](CCCCNC(=O)CCOCCOCCOCCOCCNC(=O)CC[C@H](NC(=O)CCSC2CC(=O)N(CCCCCC(=O)NN=C3CC4(C3)C(=O)[O][Pt]([NH2])([NH2])[O]C4=O)C2=O)C(=O)NCCOCCOCCOCCOCCC(=O)NCCCC[C@H]2NC(=O)[C@@H](Cc3ccccc3)NC(=O)[C@H](CC(=O)O)NC(=O)CNC(=O)[C@H](CCCNC(=N)N)NC2=O)NC(=O)[C@@H](Cc2ccccc2)NC(=O)[C@H](CC(=O)O)NC(=O)CNC1=O (stereo partly drawn) [Example S72]
solubility at 30 min [1]: > 30 mg/mL
improvement of water solubility compared with carboplatin [1]: ~1 fold

N=C(N)NCCC[C@@H]1NC(=O)[C@@H](CCCCNC(=O)CCOCCOCCOCCOCCNC(=O)CC[C@H](NC(=O)CCSC2CC(=O)N(CCOCCOCCC(=O)NN=C3CC4(C3)C(=O)[O][Pt]([NH2])([NH2])[O]C4=O)C2=O)C(=O)NCCOCCOCCOCCOCCC(=O)NCCCC[C@H]2NC(=O)[C@@H](Cc3ccccc3)NC(=O)[C@H](CC(=O)O)NC(=O)CNC(=O)[C@H](CCCNC(=N)N)NC2=O)NC(=O)[C@@H](Cc2ccccc2)NC(=O)[C@H](CC(=O)O)NC(=O)CNC1=O (stereo partly drawn) [Example S80]
solubility at 30 min [1]: > 30 mg/mL
improvement of water solubility compared with carboplatin [1]: ~1 fold

N=C(N)NCCC[C@@H]1NC(=O)[C@@H](CCCCNC(=O)CCOCCOCCOCCOCCNC(=O)CC[C@H](NC(=O)CCSC2CC(=O)N(CC3CCC(C(=O)NN=C4CC(C(=O)O)(C(=O)O)C4)CC3)C2=O)C(=O)NCCOCCOCCOCCOCCC(=O)NCCCC[C@H]2NC(=O)[C@@H](Cc3ccccc3)NC(=O)[C@H](CC(=O)O)NC(=O)CNC(=O)[C@H](CCCNC(=N)N)NC2=O)NC(=O)[C@@H](Cc2ccccc2)NC(=O)[C@H](CC(=O)O)NC(=O)CNC1=O (stereo partly drawn) [Example S95]
solubility [1]: > 30 mg/mL

N=C(N)NCCC[C@@H]1NC(=O)[C@@H](CCCCNC(=O)CCOCCOCCOCCOCCNC(=O)CC[C@H](NC(=O)CCSCC2=CCC(=O)N2CC2CCC(C(=O)NN=C3CC(C(=O)O)(C(=O)O)C3)CC2)C(=O)NCCOCCOCCOCCOCCC(=O)NCCCC[C@H]2NC(=O)[C@@H](Cc3ccccc3)NC(=O)[C@H](CC(=O)O)NC(=O)CNC(=O)[C@H](CCCNC(=N)N)NC2=O)NC(=O)[C@@H](Cc2ccccc2)NC(=O)[C@H](CC(=O)O)NC(=O)CNC1=O (stereo partly drawn) [Example S97]
solubility [1]: 30 mg/mL (≈ 13.1 mM)

[NH2][Pt]1([NH2])[O]C(=O)C2(CCC2)C(=O)[O]1 [carboplatin, reference compound]
solubility at 30 min [1]: 16.6 mg/mL
water solubility [2]: 17.0 mg/mL
